Measured values reported in US8263637B2, “Methods for treatment of multiple myeloma using cyclopropane carboxylic acid {2-[(is)-1-(3-ethoxy-4-methoxy-phenyl)-2-methanesulfonyl-ethyl]-3-oxo-2,3-dihydro-1 h-isoindol-4-yl}-amide” (Celgene Corporation, priority 2002, dated 2012).

Columns and labels:
[1] = Cardiovascular and respiratory function in anesthetized dogs; type: in vivo, Beagle dogs
Procedure: The effects of 3-(3,4-dimethoxy-phenyl)-3-(1-oxo-1,3-dihydro-isoindol-2-yl)-propionamide on cardiovascular and respiratory function are investigated in anesthetized dogs. Two groups of Beagle dogs (2/sex/group) are used. One group receives three doses of vehicle only and the other receives three ascending doses of the compound (200, 400, and 800 mg/kg). In all cases, doses of the compound or vehicle are successively administered via infusion through the jugular vein separated by intervals of at least 30 minutes.
The cardiovascular and respiratory changes induced by 3-(3,4-diethoxy-phenyl)-3-(1-oxo-1,3-dihydro-isoindol-2-yl)-propionamide are minimal at all doses when compared to the vehicle control group.

TNF-α production = test: Inhibition of TNF-α production following LPS-stimulation of human PBMC and human whole blood; type: cell-based; details: in vitro studies; relative to thalidomide
Excerpt: In a specific embodiment, the pharmacological properties of 3-(3,4-dimethoxy-phenyl)-3-(1-oxo-1,3-dihydro-isoindol-2-yl)-propionamide are characterized in in vitro studies. Studies examine the effects of the compound on the production of various cytokines. Inhibition of TNF-α production following LPS-stimulation of human PBMC and human whole blood by the compound is investigated in vitro. […] The pharmacological effects of 3-(3,4-dimethoxy-phenyl)-3-(1-oxo-1,3-dihydro-isoindol-2-yl)-propionamide may derive from its action as an inhibitor of the generation of inflammatory cytokines.

COc1ccc(C(CC(N)=O)N2Cc3ccccc3C2=O)cc1OC (stereo not drawn) [3-(3,4-dimethoxy-phenyl)-3-(1-oxo-1,3-dihydro-isoindol-2-yl)-propionamide]
cardiovascular and respiratory changes compared to the vehicle control group ([1]; all doses (200, 400, and 800 mg/kg), infusion through the jugular vein): minimal | deviations in femoral blood flow, respiratory parameters, and Qtc interval ([1]; common to both the control and treated groups): not considered treatment-related | arterial blood pressure effect at higher doses ([1]; higher doses): not seen | duration of the arterial blood pressure effect ([1]; low dose): approximately 15 minutes | arterial blood pressure, difference between vehicle and treatment groups ([1]; low dose, statistically significant): small increase | pharmacological activity profile, times more potent than thalidomide (TNF-α production): five to fifty
